The values that follow come from patent US9206427B2, “Compositions, kits, and methods for the modulation of immune responses using galectin-1” (Dana-Farber Cancer Institute, Inc., priority 2007, dated 2015).

Like-named read-outs stand apart in the source and are kept apart here.

One series relates to normal activated T-cells. In words: rGal1-induced apoptosis of activated T cells (FITC-annexin V and PI double staining). Type of series: cell-based, human. To be noted: activated T cells treated with rGal1 in the presence or absence of TDG; FIG. 4. The protocol: Activated T-cells were either untreated or treated with rGal1 in the presence or absence of TDG. Thereafter, apoptosis was assessed by FITC-annexin V and PI double staining. The histograms (left panels) are representative of 3 separate experiments that were averaged to obtain the percent positive cells in the bar graphs (right panels).
Recombinant Gal1 was obtained and purified essentially as described (Toscano et al. (2006) J Immunol 176, 6323-6332). T cells were purified as described above and simultaneously activated with anti-CD3-(0.1 μg/mL) and anti-CD28-(0.5 μg/mL) coated latex beads (Invitrogen) and treated with rGal1 (20 μM) in RPMI 1640 medium containing 10% fetal bovine serum and 1 mM β-ME alone or rGal1 and the Gal1 inhibitor, thiodigalactoside (TDG, 100 mM) (Rabinovich et al. (1999) J Exp Med 190, 385-397) or left untreated for 16 hours. Supernatants were then analyzed for IL-4, IL-5, IL-10, and IL-13 using cytometric bead array (CBA) Flex Set beads according to manufacturer's protocol (BD Biosciences, San Jose, Calif.). […] Thereafter, the PE detection reagent was added and samples were incubated for an additional 2 hours, washed and analyzed using FACS Aria Flow Cytometer (BD Biosciences). Results were captured with FACS Diva software and analyzed with the FCAP1.1 program (BD Biosciences). […]

Series [1] concerns activated T cells. In words: Analysis of regulatory T cells (CD4+ CD25high FOXP3+) by triple-color flow cytometry. Type of series: cell-based, human. To be noted: activated T cells treated with rGal1 or rGal1 and TDG, 24 hours; FIG. 3E. On the procedure:
T cells were purified, activated with anti-CD3- and anti-CD28-coated latex beads and treated with rGal1, rGal1 and TDG or left untreated for 24 hours. Thereafter, cells were stained with CD4-FITC and CD25-APC, washed, fixed, permeabilized and stained with FOXP3-PE antibody or rat IgG2b isotype control as previously described (Zorn et al. (2006) Blood 108, 1571-1579) (Human Regulatory T-cell staining kit, eBioscience, San Diego, Calif.). CD4^+ CD25^high FOXP3 Treg cells were identified and quantified using Beckman Cytomics FC500 flow cytometer as previously described (Zorn et al. (2006) Blood 108, 1571-1579).

The subject of series [2] is activated T cells. In words: Th2 cytokine production by rGal1-treated activated T cells (cytometric bead array). The settings on record: anti-CD3/anti-CD28 activated T cells, rGal1 20 μM, TDG 100 mM, 16 hours; FIG. 3D. The series is classed as cell-based, human. The protocol: Recombinant Gal1 was obtained and purified essentially as described (Toscano et al. (2006) J Immunol 176, 6323-6332). T cells were purified as described above and simultaneously activated with anti-CD3-(0.1 μg/mL) and anti-CD28-(0.5 μg/mL) coated latex beads (Invitrogen) and treated with rGal1 (20 μM) in RPMI 1640 medium containing 10% fetal bovine serum and 1 mM β-ME alone or rGal1 and the Gal1 inhibitor, thiodigalactoside (TDG, 100 mM) (Rabinovich et al. (1999) J Exp Med 190, 385-397) or left untreated for 16 hours. Supernatants were then analyzed for IL-4, IL-5, IL-10, and IL-13 using cytometric bead array (CBA) Flex Set beads according to manufacturer's protocol (BD Biosciences, San Jose, Calif.). In brief, multiplexed antibody-conjugated beads were incubated with culture supernatants or serial dilutions of cytokine standards for 1 hour. Thereafter, the PE detection reagent was added and samples were incubated for an additional 2 hours, washed and analyzed using FACS Aria Flow Cytometer (BD Biosciences). Results were captured with FACS Diva software and analyzed with the FCAP1.1 program (BD Biosciences).

Another series deals with HD-MY-Z cells. In words: Proliferation rate and viability of transduced HD-MY-Z cells. Type of series: cell-based, human. To be noted: after Gal1 knockdown. An excerpt:
Gal1 specific siRNA was designed using siRNA Selection Program (Yuan et al. (2004) Nucleic Acids Res 32, W130-134) (available on the World Wide Web at jura.wi.mit.edu/bioc/siRNAext/), synthesized as single-stranded DNA oligonucleotides by Integrated DNA Technologies (IDT, Inc., Coralville, Iowa) and annealed. Gal1-specific oligonucleotide (Gal1 RNAi, […] (SEQ ID NO: 12) or scrambled oligonucleotide (SCR, […] (SEQ ID NO: 13) were ligated into the linearized pSIREN-RetroQ retroviral vector (BD Clontech, Mountain View, Calif.). Generation of recombinant retrovirus and infection of HD-MY-Z cells was performed as previously described (Juszczynski et al. (2006) Mol Cell Biol 26, 5348-5359). After infection, cells were subjected to puromycin selection (0.5 μg/mL) and subcloning by limiting dilution. Thereafter, whole-cell extracts of obtained subclones were prepared and screened for Gal1 expression by immunoblotting as described above.

A further series relates to Gal1. In words: RNA-interference mediated Gal1 knock-down in HD-MY-Z cells (immunoblot). The settings on record: HD-MY-Z cells transduced with pSIREN-RetroQ vector; FIG. 3A. Type of series: cell-based, human. An excerpt: DLBCL and cHL cell lines were maintained as previously described (Mathas et al. (2002) Embo J 21, 4104-4113; Polo et al. (2007) Proc Natl Acad Sci USA 104, 3207-3212). Cells were lysed, size-fractionated on NuPAGE Novex 4-12% Bis-Tris Gels (Invitrogen, Carlsbad, Calif.), and transferred to PVDF membranes (Millipore Corp., Bedford, Mass.). Membranes were immunostained with purified Gal1 rabbit IgG (Rubinstein et al. (2004) Cancer Cell 5, 241-251) and HRP-conjugated donkey anti-rabbit antibody (GE Healthcare, Piscataway, N.J.) and developed using a chemiluminescent method (ECL, GE Healthcare).
Gal1 specific siRNA was designed using siRNA Selection Program (Yuan et al. (2004) Nucleic Acids Res 32, W130-134) (available on the World Wide Web at jura.wi.mit.edu/bioc/siRNAext/), synthesized as single-stranded DNA oligonucleotides by Integrated DNA Technologies (IDT, Inc., Coralville, Iowa) and annealed. […]

In series [3] the test system is activated T cells co-cultured with HD-MY-Z cells. In words: Viable T cells after co-culture with Gal1 shRNA or SCR shRNA HD-MY-Z cHL cells (Annexin-V, CD3, CD4 flow cytometry). The settings on record: PHA-activated T cells, 6 hours co-culture, Gal1 shRNA versus SCR shRNA HD-MY-Z; FIG. 3B. Type of series: cell-based, human. On the procedure: 1. Co-culture. Peripheral blood mononuclear cells (PBMCs) were obtained from normal blood donors by Ficoll-Hypaque (GE Healthcare) gradient centrifugation. Thereafter, T cells were purified using Pan T Cell Isolation Kit II (Miltenyi Biotec, Auburn, Calif.) and activated with 1 μg/mL PHA (Sigma-Aldrich) for 64 hours. 1×10^6 of activated T cells were then co-cultured with monolayers (3×10^6 cells) of HD-MY-Z cells expressing either scrambled shRNA or Gal1 specific shRNA for 6 hours at 37° C.
2. Analyses of viable T cells. Following co-culture, all cells were harvested and sequentially stained with CD3-PE and CD4-PE-Cy5 (Beckman Coulter, Fullerton, Calif.) followed by Annexin V-FITC and analyzed with a Beckman Cytomics FC500 flow cytometer. The numbers of viable (annexin V-) and (propidium iodide-) CD3^+ and CD4^+ T cells in Gal1 shRNA or scrambled shRNA HD-MY-Z/T-cell co-cultures were then compared.

Series [4] has as its system CD4+ T cells co-cultured with HD-MY-Z cells. In words: T-bet and GATA-3 expression in co-cultured CD4+ T cells (QPCR). The series is classed as cell-based, human. The settings on record: CD4+ cells after 24-48 hours co-culture, Gal1 shRNA versus SCR shRNA HD-MY-Z; FIG. 3C. The protocol:
3. Analyses of T-bet and GATA-3 expression in co-cultured CD4^+ T cells. After PHA-activated T-cells were co-cultured with HD-MY-Z cells expressing either scrambled shRNA or Gal1 specific shRNA for 24-48 hours, cells were collected and non-viable cells were depleted by Ficoll-Hypaque gradient centrifugation. Remaining viable cells were washed, incubated with CD4 MACS microbeads and purified using a MACS LS column according to the manufacturer's protocol (Miltenyi Biotec). Thereafter, RNA was obtained from the isolated CD4^+ cells and cDNA was synthesized from total RNA (3 μg) as described above. GATA-3, T-bet and GAPDH (housekeeping control) transcript abundance was evaluated by QPCR using Power SYBR green PCR Master Mix (Applied Biosystems, Foster City, Calif.), GAPDH primers listed above and the following GATA3 and T-bet primers: GATA3, Forward: […] (SEQ ID NO: 14); GATA3, Reverse: ACACCTGGCTCCCGTGGT (SEQ ID NO: 15); T-bet, Forward: […] (SEQ ID NO: 16); T-bet, Reverse: […] (SEQ ID NO: 17). PCR and transcript abundance analysis was performed as described above. GATA-3 and T-bet expression in purified CD4^+ cells from SCR shRNA and Gal1 shRNA HD-MY-Z/T-cell cocultures were then compared.

The subject of the next series is Th1-dependent responses. The settings on record: cited from earlier work; for Th1-dependent responses: murine models of chronic inflammatory / autoimmune disorders.

As for `OC[C@H]1O[C@@H](S[C@@H]2O[C@H](CO)[C@H](O)[C@H](O)[C@H]2O)[C@H](O)[C@@H](O)[C@H]1O` [TDG, thiodigalactoside, reference compound], the “apoptosis of total activated T cells” value with normal activated T-cells was “completely blocked rGal1-induced apoptosis”. In addition, the “CD4+ CD25high FOXP3+ Treg population” value with activated T cells [1] is listed as “completely blocked this effect”. In addition, in the series on activated T cells [2], the IL-4 in supernatants result is on record as “specifically blocked this effect”, the IL-5 in supernatants result is recorded as “specifically blocked this effect”, the IL-10 in supernatants result is recorded as “specifically blocked this effect” and the IL-13 in supernatants result was “specifically blocked this effect”.

With “Gal1 shRNA: pSIREN-RetroQ retroviral vector encoding Gal1-specific shRNA; target sequence GCTGCCAGATGGATACGAA (SEQ ID NO: 1) (DNA GATCCGCTGCCAGATGGATACGAATTCAAGAGATTCGTATCCATCTGGCAGCTTTTTTG)”, the “proliferation rate or viability of transduced HD-MY-Z cells” value in the series with HD-MY-Z cells is “did not alter”. Also, in the series with Gal1, the Gal1 protein expression result is “can be blocked”. In series [3], the “viable Th (CD4+) T cells” value is “significantly fewer viable total (CD3^+) and Th (CD4^+) T cells in control (SCR) HD-MY-Z co-cultures than in co-cultures of HD-MY-Z cells with Gal1 knockdown”; the “viable total (CD3+) T cells” value was “significantly fewer viable total (CD3^+) and Th (CD4^+) T cells in control (SCR) HD-MY-Z co-cultures than in co-cultures of HD-MY-Z cells with Gal1 knockdown”. Moreover, in series [4], the “expression of GATA-3 (Th2-specific transcription factor)” value was “higher expression of GATA-3 than CD4^+ T cells from Gal1 shRNA HD-MY-Z co-cultures” and the “expression of T-bet (Th1-specific transcription factor)” value is on record as “control (SCR) HD-MY-Z cells exhibited significantly lower expression of T-bet”.

On to “rGal1: recombinant Gal1 (galectin-1), a glycan-binding protein”, for which the “apoptosis of total activated T cells” value in the series on normal activated T-cells is recorded as “induced apoptosis”. Besides, the “CD4+ CD25high FOXP3+ Treg population” value with activated T cells [1] is reported as “significantly increased”. Besides, the cytokine profile entry in the series on Th1-dependent responses (murine models of Th1-driven chronic inflammatory and autoimmune disorders) is recorded as “skewed towards Th2 cytokine profiles”. Also, in the series on Th1-dependent responses (listed as Gal1), the Th1-dependent responses result is listed as “dramatically suppressed”. Also, the Th1-dependent responses entry in the series with Th1-dependent responses (listed as recombinant Gal1) is on record as “suppressed”. Moreover, the “T-cell susceptibility to activation-induced cell death” value in the series on Th1-dependent responses (murine models of chronic inflammatory diseases) is given as “increased”. Further, in the series with activated T cells [2], the IL-4 in supernatants entry is reported as “significantly higher amounts”, the IL-5 in supernatants result is recorded as “significantly higher amounts”, the IL-10 in supernatants result was “significantly higher amounts” and the IL-13 in supernatants result is “significantly higher amounts”.
